Assays:
[1] = Stability in phosphate-buffered saline; type: physicochemical; details: 25 MBq/nmol, 24 h; for intact complex in PBS: no radioprotectant, ambient temperature
Protocol: The stability of the preformed [^64Cu]Cu^2+ complexes in phosphate-buffered saline (PBS) was explored by diluting the labelling solution 1:1 v/v in PBS (pH 7.4). Both low and high molar activities (0.1 MBq/nmol and 25 MBq/nmol, respectively) were employed to evaluate the effect of radiolysis. Radioprotectants (ethanol 10% v/v or ascorbic acid 10% v/v) were added to PBS to quench the radiolysis phenomena. The [^64Cu]Cu^2+ complex stabilities were investigated at different time points after preparation using the TLC or UHPLC protocols reported previously.

[2] = Biodistribution in BALB/c nude mice; type: in vivo
Protocol: (§1) All procedures involving animals were performed in accordance with ethical protocols approved by the Italian Ministry of Health (n. 44/2021-PR). Six-week-old female BALB/c nude mice (n = 9) were purchased from Charles River/Envigo and divided into three groups. Mice (n = 3/group) were administered with 7–14 MBq (depending on acquisition time after injection) of [^64Cu][Cu(DO2A2S)] solution by caudal intravenous injection. The exact amount of injected radioactivity was determined using a Capintec CRC-15PET dose calibrator. Micro PET/CT data were collected at 1, 4, and 24 h post injection using a Bruker Albira Si. Mice were anaesthetized with 1–2% isoflurane in a flow of oxygen (2 L/min 100% O2) and images were acquired over 20 min (10 min for PET and CT images acquisition, respectively). PET data were reconstructed using MLEM GPU (Graphics Processing Unit), while Filter Back Projection Algorithm was used for reconstructing CT images. Mice were euthanized by cervical dislocation immediately following the PET/CT scan and organs and tissues of interest were collected and weighed. Radioactivity associated with organs was measured using a γ-spectrometer based on a 1″×1″ inch cylindrical LBC (Lanthanum BromoChloride), LaBr2.85Cl0.15:Ce, inorganic scintillator manufactured by SCIONIX coupled to a HAMAMATSU R11102 Photomultiplier tube (PMT) which was previously characterized and validated against a Capintec CRC-15PET dose calibrator [48]. The results were corrected for decay to the time of injection. Radioactivity values were expressed as percentage of injected dose (mean ± SEM) per gram of tissue or organ (% ID/g). Concurrently, blood and urine aliquots (1 μL) were sampled for stability tests, which were carried out by radio-TLC scans (Cyclone, Perkin Elmer) by using silica gel 60 RP-18 F254S plates and 0.1 M sodium citrate as eluent.

[3] = Human serum stability; type: in vitro ADME; details: prepared at 25 MBq/nmol, 37 °C, over 24 h
Protocol: Human serum stability assays were performed as follow: the preformed [^64Cu]Cu^2+ complexes (prepared at 25 MBq/nmol) were diluted 1:5 v/v in human serum. The samples were incubated at 37 °C to simulate the biological environment. At the defined time point, 50 μL of the plasma-containing mixture were added to 200 μL of ice-cold methanol (0.16 MBq/μL final concentration) and centrifuged for 3 min at 8000 rpm. Afterwards, 2 μL of supernatant were spotted on TLC plates developed using the previous protocols. Dissociation of [^64Cu]Cu^2+ from the complexes was also monitored at varying time points using the same procedure with the exception that no proteins were precipitated. In this case, 2 μL of human plasma containing the labelled complex was directly spotted on the TLC plate. […] Both procedures were validated by incubating free [^64Cu]Cu^2+ with human plasma.

[4] = In vivo stability in blood and urine samples (radio-TLC); set-up: species or system BALB/c nude mice
Protocol: as §1, with “PET data were reconstructed using MLEM GPU (Graphics Processing Unit), while Filter Back Projection Algorithm was used for reconstructing CT images. Mice were euthanized by cervical dislocation immediately following the PET/CT scan and organs and tissues of interest were collected and weighed.” left out, “The results were corrected for decay to the time of injection.” left out, “Concurrently, blood and urine aliquots (1 μL) were sampled for stability tests, which were carried out by radio-TLC scans (Cyclone, Perkin Elmer) by using silica gel 60 RP-18 F254S plates and 0.1 M sodium citrate as eluent.” left out

[5] = Stability assay with DOTA (1000:1 DOTA-to-ligand); type: physicochemical; details: RT
Protocol: (§2) The stability of the preformed [^64Cu]Cu^2+ complexes was assessed by adding a 1000:1 DOTA/cysteine-to-ligand molar ratio excess. The incubation temperature was set at 37 °C when cysteine was used to simulate the biological environment, whilst it was kept at RT when DOTA was employed as a challenging agent.
(§3) The complex stability was evaluated over time by withdrawing an aliquot from the reaction mixtures. The latter was analyzed by UHPLC using the method described above.

[6] = Stability assay with cysteine (1000:1 Cys-to-ligand); type: physicochemical; details: 37 °C
Protocol: as §2, §3

[7] = maximum reached over 1-24 h post-injection

SMILES	% of intact complex, DOTA, 0 h [5]	% of intact complex, DOTA, 7 h [5]	% of intact complex, DOTA, 24 h [5]	% of intact complex, Cysteine, 0 h [6]	% of intact complex, Cysteine, 3 h [6]	% of intact complex, Cysteine, 24 h [6]	other results
CSCCN1CCN(CC(=O)O)CCN(CCSC)CCN(CC(=O)O)CC1 [DO2A2S, 1,7-bis[2-(methylsulfanyl)ethyl]-4,10,diacetic acid-1,4,7,10-tetraazacyclododecane]							intact complex in PBS with ascorbic acid ([1]; ascorbic acid 10% v/v): ~ 90%; intact complex in PBS [1]: ~ 25%
CSCCN1CCN(CCSC)CCN(CCSC)CCN(CCSC)CC1 [DO4S, 1,4,7,10-Tetrakis[2-(methylsulfanyl)ethyl]-1,4,7,10-tetraazacyclododecane]							intact complex in PBS [1]: ~ 70%
CSCCN1CCN(CC(=O)[O-])CCN(CCSC)CCN(CC(=O)[O-])CC1.[64Cu+2] [[^64Cu][Cu(DO2A2S)]]	91%	90%	87%	100%	85%	74%	blood levels ([2]; 1 h post-injection, tail vein): < 2 % ID/g; kidneys uptake ([2]; 1 h post-injection, tail vein): 14.1 % ID/g; liver uptake ([2]; 1 h post-injection, tail vein): 14.0 % ID/g; lungs uptake ([2]; 1 h post-injection, tail vein): 8 % ID/g; pancreas uptake ([2]; 1 h post-injection, tail vein): 3 % ID/g; retention in bone ([2]; 1 h post-injection, tail vein): < 2 % ID/g; retention in muscle ([2]; 1 h post-injection, tail vein): < 1 % ID/g; spleen uptake ([2]; 1 h post-injection, tail vein): 4 % ID/g; dose found at 1 h remaining in kidneys at 24 h ([2]; 24 h versus 1 h post-injection): 73%; dose found at 1 h remaining in liver at 24 h ([2]; 24 h versus 1 h post-injection): 82%; dose found at 1 h remaining in lungs at 24 h ([2]; 24 h versus 1 h post-injection): 75%; pancreas uptake, progressive accumulation over time [2, 7]: ≤ 5.5 % ID/g; spleen uptake, progressive accumulation over time [2, 7]: up to 5.3 % ID/g; intact complex in human serum [3]: > 99%; free-[^64Cu]Cu^2+/+ in urine samples ([4]; 4 h post-injection): ~50%; free copper-64 in blood samples ([4]; within 24 h from the injection): less than 5%
CSCCN1CCNCCN(CCSC)CCN(CCSC)CC1.[64Cu+2] [[^64Cu][Cu(DO3S)]^2+]	100%	100%	100%	100%	100%	100%	
CNC(=O)CN1CCN(CCSC)CCN(CCSC)CCN(CCSC)CC1.[64Cu+2] [[^64Cu][Cu(DO3SAm)]^2+]	100%	80%	38%	100%	83%	72%	
CSCCN1CCN(CCSC)CCN(CCSC)CCN(CCSC)CC1.[64Cu+2] [[^64Cu][Cu(DO4S)]^2+]	100%	92%	88%	100%	100%	83%	complex stability in PBS with radioprotectants ([1]; ethanol 10% v/v or ascorbic acid 10% v/v): preserve the complex over 24 h
O=C([O-])CN1CCN(CC(=O)[O-])CCN(CC(=O)[O-])CCN(CC(=O)[O-])CC1.[64Cu+2] [[^64Cu][Cu(DOTA)]^2−, reference compound]							intact complex in human serum [3]: around 80%

Source: publication PMC9268100, “Chelation of Theranostic Copper Radioisotopes with S-Rich Macrocycles: From Radiolabelling of Copper-64 to In Vivo Investigation” (Molecules, 2022)
